Data as given in DBAASP.
≈ marks a conversion by molar mass, not a printed value. Where “and” joins values, the source holds several entries; their conditions need not be identical. Equal values may be shown once. Blank lines part the entries; values can stand above or below the compound they belong to.

Experiments:
Assay in all cases: ≥ marks a high value that may be exact or a test limit, other limits are often not marked, values filed in µg/mL are converted to µM
[1] = test system: Listeria monocytogenes DBFIQ LM3
[2] = test system: Staphylococcus aureus DBFIQ S21
[3] = test system: Bacillus anthracis Sterne 34F2
[4] = test system: Bacillus subtilis var. niger ATCC 9372
Escherichia coli K91BK = test system: Escherichia coli K91BK
[5] = test system: Bacillus subtilis KCTC 3068
[6] = test system: Escherichia coli CCARM 1229
[7] = test system: Escherichia coli KCTC 1682
[8] = test system: Pseudomonas aeruginosa KCTC 1637
[9] = test system: Salmonella typhimurium CCARM 8003
[10] = test system: Salmonella typhimurium KCTC 1926
[11] = test system: Staphylococcus aureus CCARM 3089
[12] = test system: Staphylococcus aureus CCARM 3108
[13] = test system: Staphylococcus aureus CCARM 3114
[14] = test system: Staphylococcus aureus KCTC 1621
[15] = test system: Staphylococcus epidermidis KCTC 1917
Aspergillus flavus = test system: Aspergillus flavus
Candida albicans = test system: Candida albicans
Malassezia furfur = test system: Malassezia furfur
[16] = test system: Salmonella typhimurium CCARM 8007
Trichosporon beigelii = test system: Trichosporon beigelii
Acinetobacter sp. M13523 = test system: Acinetobacter sp. M13523
Acinetobacter sp. M5949 = test system: Acinetobacter sp. M5949
Acinetobacter sp. M9013 = test system: Acinetobacter sp. M9013
Acinetobacter sp. M9665 = test system: Acinetobacter sp. M9665
[17] = test system: Enterococcus faecalis ATCC 29212
[18] = test system: Enterococcus faecalis ATCC 51299
[19] = test system: Enterococcus faecalis M4899
[20] = test system: Enterococcus faecalis M6534
[21] = test system: Enterococcus faecalis M6983
[22] = test system: Enterococcus faecium M2304
[23] = test system: Enterococcus faecium PZAP 95
[24] = test system: Enterococcus gallinarum M2685
[25] = test system: Enterococcus gallinarum M2723
[26] = test system: Escherichia coli ATCC 25922
Escherichia coli M9884 = test system: Escherichia coli M9884
[27] = test system: Klebsiella pneumoniae M9170
[28] = test system: Klebsiella pneumoniae PFAV 3
[29] = test system: Pseudomonas aeruginosa ATCC 27853
[30] = test system: Pseudomonas aeruginosa M13513
[31] = test system: Pseudomonas aeruginosa M5470
[32] = test system: Pseudomonas aeruginosa PACO12
[33] = test system: Staphylococcus aureus ATCC 25923
[34] = test system: Staphylococcus aureus M6276
[35] = test system: Staphylococcus aureus P204
[36] = test system: Staphylococcus aureus P33
Staphylococcus cohnii = test system: Staphylococcus cohnii
[37] = test system: Staphylococcus epidermidis M2921
[38] = test system: Staphylococcus epidermidis M2923
[39] = test system: Staphylococcus haemolyticus M2976
[40] = test system: Staphylococcus hominis M2967
[41] = test system: Staphylococcus hominis M2973
[42] = test system: Staphylococcus saprophyticus M4070
Staphylococcus warneri = test system: Staphylococcus warneri

MIC [1]: ≥ 69.6 µM
MIC [2]: ≥ 69.6 µM
Compound: CC[C@H](C)[C@H](NC(=O)[C@H](C)NC(=O)[C@@H](NC(=O)[C@H](C)NC(=O)CN)[C@@H](C)O)C(=O)N[C@@H](CCCCN)C(=O)N[C@@H](CCC(N)=O)C(=O)N[C@H](C(=O)N[C@@H](CCCCN)C(=O)N[C@@H](CCCCN)C(=O)N[C@@H](CC(C)C)C(=O)N[C@@H](Cc1c[nH]c2ccccc12)C(=O)N[C@@H](CCCCN)C(=O)N[C@@H](CCCCN)C(=O)N[C@@H](CCCCN)C(=O)NCC(=O)NCC(N)=O)C(C)C [GATAIKQVKKLWKKKGG]

MIC (Acinetobacter sp. M13523): 22 µM (≈ 64 µg/mL)
MIC (Acinetobacter sp. M5949): ≥ 88 µM
MIC (Acinetobacter sp. M9013): 11 µM (≈ 32 µg/mL)
MIC (Acinetobacter sp. M9665): ≥ 44 µM
MIC [17]: 22 µM (≈ 64 µg/mL)
MIC [18]: ≥ 88 µM
MIC [19]: ≥ 88 µM
MIC [20]: ≥ 44 µM
MIC [21]: 22 µM (≈ 64 µg/mL)
MIC [22]: 5.5 µM (≈ 16 µg/mL)
MIC [23]: 11 µM (≈ 32 µg/mL)
MIC [24]: 5.5 µM (≈ 16 µg/mL)
MIC [25]: 11 µM (≈ 32 µg/mL)
MIC [26]: 44 µM and 43.9 µM
MIC (Escherichia coli M9884): ≥ 44 µM
MIC [27]: ≥ 352 µM
MIC [28]: ≥ 352 µM
MIC [29]: 22 µM (≈ 64 µg/mL)
MIC [30]: 11 µM (≈ 32 µg/mL)
MIC [31]: ≥ 44 µM
MIC [32]: 22 µM (≈ 64 µg/mL)
MIC [33]: 11 µM and 10.9 µM
MIC [34]: 5.5 µM (≈ 16 µg/mL)
MIC [35]: 22 µM (≈ 64 µg/mL)
MIC [36]: 11 µM (≈ 32 µg/mL)
MIC (Staphylococcus cohnii): 5.5 µM (≈ 16 µg/mL)
MIC [37]: 2.75 µM (≈ 8 µg/mL)
MIC [38]: 5.5 µM (≈ 16 µg/mL)
MIC [40]: 2.75 µM (≈ 8 µg/mL)
MIC [41]: 1.37 µM (≈ 4 µg/mL)
MIC [42]: 5.5 µM (≈ 16 µg/mL)
MIC (Staphylococcus warneri): 2.75 µM (≈ 8 µg/mL)
Compound: C[C@H](NC(=O)[C@H](CCCCN)NC(=O)[C@H](CCCCN)NC(=O)[C@H](CCCN=C(N)N)NC(=O)CNC(=O)[C@H](Cc1c[nH]c2ccccc12)NC(=O)[C@H](CCCN=C(N)N)NC(=O)[C@H](CCCN=C(N)N)NC(=O)[C@H](CCCCN)NC(=O)[C@H](Cc1c[nH]c2ccccc12)NC(=O)[C@H](CCCCN)NC(=O)[C@H](Cc1c[nH]c2ccccc12)NC(=O)[C@H](Cc1c[nH]c2ccccc12)NC(=O)[C@H](CCCCN)NC(=O)[C@@H]1CCCN1C(=O)[C@@H](N)Cc1c[nH]c2ccccc12)C(=O)N[C@@H](CCCCN)C(=O)N[C@@H](CCCCN)C(=O)N[C@@H](CCCN=C(N)N)C(=O)N[C@@H](CCCN=C(N)N)C(=O)NCC(N)=O [WPKWWKWKRRWGRKKAKKRRG]
MIC [39]: 5.5 µM (≈ 16 µg/mL)

Further lines, the compound ahead of its results:

Compound: CC[C@H](C)[C@H](NC(C)=O)C(=O)N[C@@H](CC(C)C)C(=O)N[C@@H](CCCN=C(N)N)C(=O)N[C@@H](Cc1c[nH]c2ccccc12)C(=O)N1CCC[C@H]1C(=O)N[C@@H](Cc1c[nH]c2ccccc12)C(=O)N[C@@H](Cc1c[nH]c2ccccc12)C(=O)N1CCC[C@H]1C(=O)N[C@@H](Cc1c[nH]c2ccccc12)C(=O)N[C@@H](CCCN=C(N)N)C(=O)N[C@@H](CCCN=C(N)N)C(=O)N[C@@H](CCCCN)C(N)=O [ILRWPWWPWRRK]
MIC [3]: 25 µM (≈ 45.5 µg/mL)
MIC [4]: 3.13 µM (≈ 5.7 µg/mL)
MIC (Escherichia coli K91BK): ≥ 100 µM

Compound: CC[C@H](C)[C@H](NC(=O)[C@H](C)NC(=O)[C@H](CC(C)C)NC(=O)[C@H](Cc1c[nH]c2ccccc12)NC(=O)[C@H](CC(C)C)NC(=O)[C@@H](N)CCCN=C(N)N)C(=O)NCC(=O)N[C@@H](CCCN=C(N)N)C(=O)N[C@@H](CCCN=C(N)N)C(N)=O [RLWLAIGRR]
MIC [5]: 4 µM (≈ 4.56 µg/mL)
MIC [6]: 8 µM (≈ 9.12 µg/mL)
MIC [7]: 4 µM (≈ 4.56 µg/mL)
MIC [8]: 16 µM (≈ 18.2 µg/mL)
MIC [9]: ≥ 32 µM
MIC [10]: 16 µM (≈ 18.2 µg/mL)
MIC [11]: 8 µM (≈ 9.12 µg/mL)
MIC [12]: 4 µM (≈ 4.56 µg/mL)
MIC [13]: 16 µM (≈ 18.2 µg/mL)
MIC [14]: 4 µM (≈ 4.56 µg/mL)
MIC [15]: 2 µM (≈ 2.28 µg/mL)

Compound: CC(C)C[C@H](NC(=O)[C@H](Cc1c[nH]c2ccccc12)NC(=O)[C@H](CC(C)C)NC(=O)[C@@H](N)CCCN=C(N)N)C(=O)N[C@@H](C)C(=O)N[C@@H](Cc1c[nH]c2ccccc12)C(=O)N[C@@H](CCCCN)C(=O)N[C@@H](CCCN=C(N)N)C(=O)N[C@@H](CCCN=C(N)N)C(N)=O [RLWLAWKRR]
MIC (Aspergillus flavus): 5 µM (≈ 6.42 µg/mL)
MIC [5]: 2 µM (≈ 2.57 µg/mL)
MIC (Candida albicans): 2.5 µM (≈ 3.21 µg/mL)
MIC [6]: 4 µM (≈ 5.13 µg/mL)
MIC [7]: 2 µM (≈ 2.57 µg/mL)
MIC (Malassezia furfur): 1.25 µM (≈ 1.6 µg/mL)
MIC [8]: 8 µM (≈ 10.3 µg/mL)
MIC [9]: 4 µM (≈ 5.13 µg/mL)
MIC [16]: 8 µM (≈ 10.3 µg/mL)
MIC [10]: 2 µM (≈ 2.57 µg/mL)
MIC [11]: 4 µM (≈ 5.13 µg/mL)
MIC [13]: 8 µM (≈ 10.3 µg/mL)
MIC [14]: 2 µM (≈ 2.57 µg/mL)
MIC [15]: 1 µM (≈ 1.28 µg/mL)
MIC (Trichosporon beigelii): 5 µM (≈ 6.42 µg/mL)
